Key:
Assay in all cases: relative viability (nuclei count vs DMSO), 5 days (fraction); higher = more cells survive
IMD-0354 + Navitoclax = compound: O=C(Nc1cc(C(F)(F)F)cc(C(F)(F)F)c1)c1cc(Cl)ccc1O [IMD-0354] + CC1(C)CCC(c2ccc(Cl)cc2)=C(CN2CCN(c3ccc(C(=O)NS(=O)(=O)c4ccc(N[C@H](CCN5CCOCC5)CSc5ccccc5)c(S(=O)(=O)C(F)(F)F)c4)cc3)CC2)C1 [Navitoclax] (partner 0.5 µM)
Outline: (§1)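 Cells from lung cancer lines were seeded into 1536-well plates and, one day later, dosed by pin tool. Treatments were either a single drug or a fixed dose of an anchor drug with five library-drug doses (not always all listed) in √10 steps. After 5 days, nuclei were stained in a one-step fixation (final 0.05% Triton X-100, 1% formaldehyde, 1 ug/ml Hoechst) and counted on 4× images, and relative viability is the treated-to-vehicle nuclei ratio, as the median of duplicate plates.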

CX-5461 + Decitabine = compound: Cc1cnc(CNC(=O)c2c(=O)c3ccc(N4CCCN(C)CC4)nc3n3c2sc2ccccc23)cn1 [CX-5461] + Nc1ncn([C@H]2C[C@H](O)[C@@H](CO)O2)c(=O)n1 [Decitabine] (partner 2 µM)
Outline: as §1

CX-5461 + Phenformin = compound: Cc1cnc(CNC(=O)c2c(=O)c3ccc(N4CCCN(C)CC4)nc3n3c2sc2ccccc23)cn1 [CX-5461] + N=C(N)NC(=N)NCCc1ccccc1 [Phenformin] (partner 250 µM)
Outline: as §1

CX-5461 + Trametinib = compound: Cc1cnc(CNC(=O)c2c(=O)c3ccc(N4CCCN(C)CC4)nc3n3c2sc2ccccc23)cn1 [CX-5461] + CC(=O)Nc1cccc(-n2c(=O)n(C3CC3)c(=O)c3c(Nc4ccc(I)cc4F)n(C)c(=O)c(C)c32)c1 [Trametinib] (partner 0.02 µM)
Outline: as §1

For NCI-H1299, the relative viability (IMD-0354 + Navitoclax; first compound 0.04 µM) was 0.981, the relative viability (IMD-0354 + Navitoclax; first compound 0.1265 µM) was 1.08 and the relative viability (IMD-0354 + Navitoclax; first compound 0.4 µM) was 0.259. The relative viability (IMD-0354 + Navitoclax; first compound 1.265 µM) was 0.442 and the relative viability (IMD-0354 + Navitoclax; first compound 4 µM) was 0.146.
With EBC-1 the relative viability (IMD-0354 + Navitoclax; first compound 0.04 µM) was 0.41, the relative viability (IMD-0354 + Navitoclax; first compound 0.1265 µM) was 0.374 and the relative viability (IMD-0354 + Navitoclax; first compound 0.4 µM) was 0.334. For the same cell line, the relative viability (IMD-0354 + Navitoclax; first compound 1.265 µM) was 0.144 and the relative viability (IMD-0354 + Navitoclax; first compound 4 µM) was 0.185.
Cell Line NCI-H2347 has a relative viability (CX-5461 + Decitabine; first compound 0.01 µM) of 0.628, a relative viability (CX-5461 + Decitabine; first compound 0.03162 µM) of 0.638 and a relative viability (CX-5461 + Decitabine; first compound 0.1 µM) of 0.625. For the same cell line, the relative viability (CX-5461 + Decitabine; first compound 0.3162 µM) was 0.604, the relative viability (CX-5461 + Decitabine; first compound 1 µM) was 0.589 and the relative viability (CX-5461 + Phenformin; first compound 0.01 µM) was 0.546. For the same cell line, the relative viability (CX-5461 + Phenformin; first compound 0.03162 µM) was 0.361, the relative viability (CX-5461 + Phenformin; first compound 0.1 µM) was 0.337 and the relative viability (CX-5461 + Phenformin; first compound 0.3162 µM) was 0.338. It also gave a relative viability (CX-5461 + Phenformin; first compound 1 µM) of 0.397, a relative viability (CX-5461 + Trametinib; first compound 0.01 µM) of 0.273 and a relative viability (CX-5461 + Trametinib; first compound 0.03162 µM) of 0.279. For the same cell line, the relative viability (CX-5461 + Trametinib; first compound 0.1 µM) was 0.292, the relative viability (CX-5461 + Trametinib; first compound 0.3162 µM) was 0.272 and the relative viability (CX-5461 + Trametinib; first compound 1 µM) was 0.223. The relative viability (IMD-0354 + Navitoclax; first compound 0.04 µM) was 0.818, the relative viability (IMD-0354 + Navitoclax; first compound 0.1265 µM) was 0.838 and the relative viability (IMD-0354 + Navitoclax; first compound 0.4 µM) was 0.55. The relative viability (IMD-0354 + Navitoclax; first compound 1.265 µM) was 0.35 and the relative viability (IMD-0354 + Navitoclax; first compound 4 µM) was 0.255.
Work on NCI-H2342 yielded a relative viability (CX-5461 + Decitabine; first compound 0.01 µM) of 0.686, a relative viability (CX-5461 + Decitabine; first compound 0.03162 µM) of 0.699 and a relative viability (CX-5461 + Decitabine; first compound 0.1 µM) of 0.734. For the same cell line, the relative viability (CX-5461 + Decitabine; first compound 0.3162 µM) was 0.691, the relative viability (CX-5461 + Decitabine; first compound 1 µM) was 0.586 and the relative viability (CX-5461 + Phenformin; first compound 0.01 µM) was 0.645. The relative viability (CX-5461 + Phenformin; first compound 0.03162 µM) was 0.53, the relative viability (CX-5461 + Phenformin; first compound 0.1 µM) was 0.535 and the relative viability (CX-5461 + Phenformin; first compound 0.3162 µM) was 0.675. For the same cell line, the relative viability (CX-5461 + Phenformin; first compound 1 µM) was 0.586, the relative viability (CX-5461 + Trametinib; first compound 0.01 µM) was 0.787 and the relative viability (CX-5461 + Trametinib; first compound 0.03162 µM) was 0.81. The relative viability (CX-5461 + Trametinib; first compound 0.1 µM) was 0.832, the relative viability (CX-5461 + Trametinib; first compound 0.3162 µM) was 0.871 and the relative viability (CX-5461 + Trametinib; first compound 1 µM) was 0.918.
For NCI-H650, the relative viability (CX-5461 + Decitabine; first compound 0.01 µM) was 0.328, the relative viability (CX-5461 + Decitabine; first compound 0.03162 µM) was 0.272 and the relative viability (CX-5461 + Decitabine; first compound 0.1 µM) was 0.298. For the same cell line, the relative viability (CX-5461 + Decitabine; first compound 0.3162 µM) was 0.32, the relative viability (CX-5461 + Decitabine; first compound 1 µM) was 0.313 and the relative viability (CX-5461 + Phenformin; first compound 0.01 µM) was 0.486. It also gave a relative viability (CX-5461 + Phenformin; first compound 0.03162 µM) of 0.441, a relative viability (CX-5461 + Phenformin; first compound 0.1 µM) of 0.429 and a relative viability (CX-5461 + Phenformin; first compound 0.3162 µM) of 0.487. The relative viability (CX-5461 + Phenformin; first compound 1 µM) was 0.386, the relative viability (CX-5461 + Trametinib; first compound 0.01 µM) was 1.06 and the relative viability (CX-5461 + Trametinib; first compound 0.03162 µM) was 0.938. For the same cell line, the relative viability (CX-5461 + Trametinib; first compound 0.1 µM) was 0.991, the relative viability (CX-5461 + Trametinib; first compound 0.3162 µM) was 1.05 and the relative viability (CX-5461 + Trametinib; first compound 1 µM) was 0.911.
Cell Line A549 has a relative viability (CX-5461 + Decitabine; first compound 0.01 µM) of 0.299, a relative viability (CX-5461 + Decitabine; first compound 0.03162 µM) of 0.387 and a relative viability (CX-5461 + Decitabine; first compound 0.1 µM) of 0.249. For the same cell line, the relative viability (CX-5461 + Decitabine; first compound 0.3162 µM) was 0.269, the relative viability (CX-5461 + Decitabine; first compound 1 µM) was 0.0566 and the relative viability (CX-5461 + Phenformin; first compound 0.01 µM) was 0.155. The relative viability (CX-5461 + Phenformin; first compound 0.03162 µM) was 0.165, the relative viability (CX-5461 + Phenformin; first compound 0.1 µM) was 0.104 and the relative viability (CX-5461 + Phenformin; first compound 0.3162 µM) was 0.0393. The relative viability (CX-5461 + Phenformin; first compound 1 µM) was 0.0272, the relative viability (IMD-0354 + Navitoclax; first compound 0.04 µM) was 1.37 and the relative viability (IMD-0354 + Navitoclax; first compound 0.1265 µM) was 1.19. The relative viability (IMD-0354 + Navitoclax; first compound 0.4 µM) was 0.54, the relative viability (IMD-0354 + Navitoclax; first compound 1.265 µM) was 0.0726 and the relative viability (IMD-0354 + Navitoclax; first compound 4 µM) was 0.0514.
For NCI-H1563, the relative viability (CX-5461 + Phenformin; first compound 0.01 µM) was 0.663, the relative viability (CX-5461 + Phenformin; first compound 0.03162 µM) was 0.677 and the relative viability (CX-5461 + Phenformin; first compound 0.1 µM) was 0.531. It also gave a relative viability (CX-5461 + Phenformin; first compound 0.3162 µM) of 0.627 and a relative viability (CX-5461 + Phenformin; first compound 1 µM) of 0.457.
With SW 900 the relative viability (CX-5461 + Decitabine; first compound 0.01 µM) was 0.631, the relative viability (CX-5461 + Decitabine; first compound 0.03162 µM) was 0.448 and the relative viability (CX-5461 + Decitabine; first compound 0.3162 µM) was 0.457. The relative viability (CX-5461 + Decitabine; first compound 1 µM) was 0.387, the relative viability (CX-5461 + Phenformin; first compound 0.01 µM) was 0.656 and the relative viability (CX-5461 + Phenformin; first compound 0.03162 µM) was 0.641. It also gave a relative viability (CX-5461 + Phenformin; first compound 0.1 µM) of 0.743, a relative viability (CX-5461 + Phenformin; first compound 0.3162 µM) of 0.532 and a relative viability (CX-5461 + Phenformin; first compound 1 µM) of 0.209. It also gave a relative viability (CX-5461 + Trametinib; first compound 0.01 µM) of 0.664, a relative viability (CX-5461 + Trametinib; first compound 0.03162 µM) of 0.84 and a relative viability (CX-5461 + Trametinib; first compound 0.3162 µM) of 0.548. The relative viability (CX-5461 + Trametinib; first compound 1 µM) was 0.829.
For IA-LM, the relative viability (IMD-0354 + Navitoclax; first compound 0.04 µM) was 0.778, the relative viability (IMD-0354 + Navitoclax; first compound 0.1265 µM) was 0.662 and the relative viability (IMD-0354 + Navitoclax; first compound 0.4 µM) was 0.381. It also gave a relative viability (IMD-0354 + Navitoclax; first compound 1.265 µM) of 0.122 and a relative viability (IMD-0354 + Navitoclax; first compound 4 µM) of 0.0656.
In the case of NCI-H1703, the relative viability (IMD-0354 + Navitoclax; first compound 0.04 µM) is reported as 1.37, the relative viability (IMD-0354 + Navitoclax; first compound 0.1265 µM) is reported as 1.12 and the relative viability (IMD-0354 + Navitoclax; first compound 0.4 µM) is reported as 0.843. For the same cell line, the relative viability (IMD-0354 + Navitoclax; first compound 1.265 µM) was 0.131 and the relative viability (IMD-0354 + Navitoclax; first compound 4 µM) was 0.115.
In the case of LCLC-103H, the relative viability (CX-5461 + Decitabine; first compound 0.01 µM) is reported as 0.684, the relative viability (CX-5461 + Decitabine; first compound 0.03162 µM) is reported as 0.743 and the relative viability (CX-5461 + Decitabine; first compound 0.1 µM) is reported as 0.705. The relative viability (CX-5461 + Decitabine; first compound 0.3162 µM) was 0.766, the relative viability (CX-5461 + Decitabine; first compound 1 µM) was 0.707 and the relative viability (CX-5461 + Phenformin; first compound 0.01 µM) was 0.377. It also gave a relative viability (CX-5461 + Phenformin; first compound 0.03162 µM) of 0.349, a relative viability (CX-5461 + Phenformin; first compound 0.1 µM) of 0.326 and a relative viability (CX-5461 + Phenformin; first compound 0.3162 µM) of 0.364. It also gave a relative viability (CX-5461 + Phenformin; first compound 1 µM) of 0.297, a relative viability (CX-5461 + Trametinib; first compound 0.01 µM) of 0.629 and a relative viability (CX-5461 + Trametinib; first compound 0.03162 µM) of 0.687. The relative viability (CX-5461 + Trametinib; first compound 0.1 µM) was 0.626, the relative viability (CX-5461 + Trametinib; first compound 0.3162 µM) was 0.674 and the relative viability (CX-5461 + Trametinib; first compound 1 µM) was 0.663.
In the case of NCI-H1648, the relative viability (CX-5461 + Decitabine; first compound 0.01 µM) is reported as 0.493, the relative viability (CX-5461 + Decitabine; first compound 0.03162 µM) is reported as 0.508 and the relative viability (CX-5461 + Decitabine; first compound 0.1 µM) is reported as 0.488. The relative viability (CX-5461 + Decitabine; first compound 0.3162 µM) was 0.44, the relative viability (CX-5461 + Decitabine; first compound 1 µM) was 0.474 and the relative viability (CX-5461 + Trametinib; first compound 0.01 µM) was 0.47. For the same cell line, the relative viability (CX-5461 + Trametinib; first compound 0.03162 µM) was 0.514, the relative viability (CX-5461 + Trametinib; first compound 0.1 µM) was 0.488 and the relative viability (CX-5461 + Trametinib; first compound 0.3162 µM) was 0.534. The relative viability (CX-5461 + Trametinib; first compound 1 µM) was 0.509.
